In ChEMBL document CHEMBL4828722, “The synthesis and bioactivity of pyrrolo[2,3-d]pyrimidine derivatives as tyrosine kinase inhibitors for NSCLC cells with EGFR mutations” (Eur J Med Chem, 2021) one finds inhibition and IC50 data, which are given here for five compounds.

Structures are written as SMILES.

In assay [1] the test system is Epidermal growth factor receptor (Homo sapiens), P00533 [L858R,T790M,C797S]. The assay is described as follows: Inhibition of […] EGFR L858R/T790M/C797S mutant (unknown origin) at 2 nM pretreated with substrate for 10 mins followed by ATP addition measured after 60 mins by mobility shift assay relative to control.
Sequence of Epidermal growth factor receptor (Homo sapiens), P00533 [L858R,T790M,C797S] (P00533 whole entry T790M/C797S/L858R): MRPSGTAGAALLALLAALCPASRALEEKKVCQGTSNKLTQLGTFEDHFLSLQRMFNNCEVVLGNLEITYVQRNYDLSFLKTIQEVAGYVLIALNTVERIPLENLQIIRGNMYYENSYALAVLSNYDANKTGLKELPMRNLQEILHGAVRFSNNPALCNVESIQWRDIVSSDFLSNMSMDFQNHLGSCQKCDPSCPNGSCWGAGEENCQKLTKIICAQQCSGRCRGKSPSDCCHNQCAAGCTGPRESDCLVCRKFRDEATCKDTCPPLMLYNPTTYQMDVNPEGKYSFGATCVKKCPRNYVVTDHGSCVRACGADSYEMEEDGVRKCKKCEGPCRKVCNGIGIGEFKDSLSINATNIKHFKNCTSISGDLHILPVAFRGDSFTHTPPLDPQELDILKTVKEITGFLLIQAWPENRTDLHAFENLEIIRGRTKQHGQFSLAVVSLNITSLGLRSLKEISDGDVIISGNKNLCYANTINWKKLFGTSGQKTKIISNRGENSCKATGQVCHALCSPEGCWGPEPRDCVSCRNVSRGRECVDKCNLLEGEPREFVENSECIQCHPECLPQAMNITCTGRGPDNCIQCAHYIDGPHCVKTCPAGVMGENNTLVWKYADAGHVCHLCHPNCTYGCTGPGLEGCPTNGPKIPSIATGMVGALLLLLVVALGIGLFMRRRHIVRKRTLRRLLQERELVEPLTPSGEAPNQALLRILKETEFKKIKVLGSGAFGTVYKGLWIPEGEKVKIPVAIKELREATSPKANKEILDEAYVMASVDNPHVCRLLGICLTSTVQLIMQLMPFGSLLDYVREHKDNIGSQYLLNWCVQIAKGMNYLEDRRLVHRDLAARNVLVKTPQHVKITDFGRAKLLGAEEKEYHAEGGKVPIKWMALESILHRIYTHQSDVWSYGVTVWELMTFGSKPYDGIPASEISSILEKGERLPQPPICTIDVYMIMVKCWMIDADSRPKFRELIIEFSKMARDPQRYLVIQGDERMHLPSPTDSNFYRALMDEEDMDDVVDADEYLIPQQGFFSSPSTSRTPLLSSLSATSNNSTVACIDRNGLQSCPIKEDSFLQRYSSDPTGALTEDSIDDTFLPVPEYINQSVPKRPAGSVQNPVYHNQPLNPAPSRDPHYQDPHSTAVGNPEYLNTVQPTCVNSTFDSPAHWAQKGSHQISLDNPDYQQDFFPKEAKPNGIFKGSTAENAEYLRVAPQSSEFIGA
For assay [2], the system named is Epidermal growth factor receptor (Homo sapiens), P00533 [T790M]. In words: Inhibition of […] EGFR T790M mutant (unknown origin) at 2 nM pretreated with substrate for 10 mins followed by ATP addition measured after 60 mins by mobility shift assay relative to control.
Sequence of Epidermal growth factor receptor (Homo sapiens), P00533 [T790M] (P00533 whole entry T790M): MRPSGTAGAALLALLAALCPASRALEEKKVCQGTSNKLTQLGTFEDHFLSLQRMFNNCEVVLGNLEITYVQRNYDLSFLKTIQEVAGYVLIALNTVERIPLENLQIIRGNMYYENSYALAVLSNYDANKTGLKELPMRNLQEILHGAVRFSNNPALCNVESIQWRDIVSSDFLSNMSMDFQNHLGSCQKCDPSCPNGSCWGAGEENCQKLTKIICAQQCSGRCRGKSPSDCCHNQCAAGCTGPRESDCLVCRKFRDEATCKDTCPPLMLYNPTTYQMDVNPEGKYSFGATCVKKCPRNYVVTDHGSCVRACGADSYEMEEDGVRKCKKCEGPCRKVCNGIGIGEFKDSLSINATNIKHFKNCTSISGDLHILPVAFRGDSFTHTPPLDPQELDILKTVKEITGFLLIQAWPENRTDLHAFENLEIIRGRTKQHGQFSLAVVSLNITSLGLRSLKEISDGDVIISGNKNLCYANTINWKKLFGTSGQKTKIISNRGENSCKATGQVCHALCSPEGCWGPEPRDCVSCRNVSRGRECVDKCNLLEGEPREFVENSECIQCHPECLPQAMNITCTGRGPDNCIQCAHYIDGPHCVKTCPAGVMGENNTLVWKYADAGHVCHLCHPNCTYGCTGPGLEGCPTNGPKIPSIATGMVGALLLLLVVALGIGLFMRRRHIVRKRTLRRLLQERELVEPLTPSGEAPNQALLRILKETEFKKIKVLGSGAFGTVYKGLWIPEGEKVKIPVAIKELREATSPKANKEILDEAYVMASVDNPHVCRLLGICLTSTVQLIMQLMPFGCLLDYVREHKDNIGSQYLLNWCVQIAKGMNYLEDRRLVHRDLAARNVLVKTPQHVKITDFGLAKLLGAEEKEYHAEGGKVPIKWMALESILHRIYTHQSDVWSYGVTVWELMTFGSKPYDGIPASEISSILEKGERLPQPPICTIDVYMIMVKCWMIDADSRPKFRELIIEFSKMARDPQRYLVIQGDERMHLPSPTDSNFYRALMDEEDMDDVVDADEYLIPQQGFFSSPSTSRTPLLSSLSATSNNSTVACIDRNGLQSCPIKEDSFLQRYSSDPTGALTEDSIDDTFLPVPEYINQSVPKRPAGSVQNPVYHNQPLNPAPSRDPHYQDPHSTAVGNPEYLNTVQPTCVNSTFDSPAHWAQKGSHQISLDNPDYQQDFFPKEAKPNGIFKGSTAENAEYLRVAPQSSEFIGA
Assay [3] can be described thus: Cytotoxicity against human HBE cells assessed as reduction in cell viability measured after 48 hrs by CCK8 assay. It counts as cell-based. A general note: Tetrazolium assays rely on reduction of a dye to a coloured formazan, in cell work by metabolically active cells.
Assay [4] relates to BEAS-2B. The assay is described as follows: Cytotoxicity against human BEAS-2B cells assessed as reduction in cell viability measured after 48 hrs by CCK8 assay. It counts as cell-based.
Assay [5] concerns NCI-H1975. In words: Cytotoxicity against human NCI-H1975 cells harboring EGFR L858R/T790M mutant assessed as reduction in cell viability measured after 48 hrs by CCK8 assay. It counts as functional, cell-based. The settings on record: NCI-H1975, 48 h.
For assay [6], the target named is Epidermal growth factor receptor (Homo sapiens, UniProt P00533). The assay is described as follows: Inhibition of wild type EGFR (unknown origin) at 80 nM pretreated with substrate for 10 mins followed by ATP addition measured after 60 mins by mobility shift assay relative to control.
The test system of assay [7] is Epidermal growth factor receptor (Homo sapiens), P00533 [L858R,T790M]. The assay is described as follows: Inhibition of […] EGFR L858R/T790M mutant (unknown origin) at 2 nM pretreated with substrate for 10 mins followed by ATP addition measured after 60 mins by mobility shift assay relative to control.
Sequence of Epidermal growth factor receptor (Homo sapiens), P00533 [L858R,T790M] (P00533 whole entry T790M/L858R, looked up): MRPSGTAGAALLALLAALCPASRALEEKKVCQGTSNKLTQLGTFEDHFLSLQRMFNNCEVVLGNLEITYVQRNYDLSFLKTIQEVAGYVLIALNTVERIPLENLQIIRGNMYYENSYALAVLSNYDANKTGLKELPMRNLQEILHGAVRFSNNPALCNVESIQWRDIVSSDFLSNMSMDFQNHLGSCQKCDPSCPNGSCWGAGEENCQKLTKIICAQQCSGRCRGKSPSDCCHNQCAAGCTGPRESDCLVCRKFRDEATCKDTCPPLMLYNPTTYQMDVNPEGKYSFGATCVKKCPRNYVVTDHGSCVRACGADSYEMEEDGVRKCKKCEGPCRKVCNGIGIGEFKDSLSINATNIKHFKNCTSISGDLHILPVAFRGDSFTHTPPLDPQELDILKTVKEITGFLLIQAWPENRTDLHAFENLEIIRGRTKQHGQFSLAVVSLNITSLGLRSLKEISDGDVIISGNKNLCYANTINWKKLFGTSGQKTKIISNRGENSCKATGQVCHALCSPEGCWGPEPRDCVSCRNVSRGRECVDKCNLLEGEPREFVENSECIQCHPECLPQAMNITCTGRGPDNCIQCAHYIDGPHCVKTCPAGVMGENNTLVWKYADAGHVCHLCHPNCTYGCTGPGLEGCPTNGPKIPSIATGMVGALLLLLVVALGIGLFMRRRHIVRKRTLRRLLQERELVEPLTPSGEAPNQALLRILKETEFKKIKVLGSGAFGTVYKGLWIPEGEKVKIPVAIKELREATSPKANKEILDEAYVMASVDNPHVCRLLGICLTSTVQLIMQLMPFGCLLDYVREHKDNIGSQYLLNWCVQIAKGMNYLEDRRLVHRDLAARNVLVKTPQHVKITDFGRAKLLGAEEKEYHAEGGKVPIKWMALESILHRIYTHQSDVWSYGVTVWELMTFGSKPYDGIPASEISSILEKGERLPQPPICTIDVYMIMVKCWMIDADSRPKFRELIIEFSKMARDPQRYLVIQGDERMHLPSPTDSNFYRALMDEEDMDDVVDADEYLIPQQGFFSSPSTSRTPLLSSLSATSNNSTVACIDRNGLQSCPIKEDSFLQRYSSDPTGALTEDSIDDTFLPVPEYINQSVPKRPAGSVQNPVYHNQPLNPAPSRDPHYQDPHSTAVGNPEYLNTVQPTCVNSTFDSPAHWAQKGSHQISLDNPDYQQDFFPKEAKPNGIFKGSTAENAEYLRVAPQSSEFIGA
In assay [8] the test system is Epidermal growth factor receptor (Homo sapiens), P00533 [L858R]. In words: Inhibition of […] EGFR L858R mutant (unknown origin) at 2 nM pretreated with substrate for 10 mins followed by ATP addition measured after 60 mins by mobility shift assay relative to control.
In assay [9] the test system is NCI-H460. The assay is described as follows: Cytotoxicity against human NCI-H460 cells harboring wild type EGFR assessed as reduction in cell viability measured after 48 hrs by CCK8 assay. The assay is classed as functional, cell-based. The conditions noted are these: NCI-H460, 48 h.
The subject of assay [10] is A549. The assay is described as follows: Cytotoxicity against human A549 cells harboring wild type EGFR assessed as reduction in cell viability measured after 48 hrs by CCK8 assay. It counts as functional, cell-based. The settings on record: A549, 48 h.
In assay [11] the test system is HCC827. In words: Cytotoxicity against human HCC827 cells harboring EGFR del E746-A750 mutant assessed as reduction in cell viability measured after 48 hrs by CCK8 assay. The conditions noted are these: HCC827, 48 h. The assay is classed as functional, cell-based.
Assay [12] deals with Epidermal growth factor receptor (Homo sapiens), P00533 [UNDEFINED MUTATION]. The assay is described as follows: Inhibition of […] EGFR Del E746/A750 mutant (unknown origin) at 2 nM pretreated with substrate for 10 mins followed by ATP addition measured after 60 mins by mobility shift assay relative to control.
The test system of assay [13] is Epidermal growth factor receptor (Homo sapiens), P00533 [C797S]. The assay is described as follows: Inhibition of […] EGFR C797S mutant (unknown origin) at 2 nM pretreated with substrate for 10 mins followed by ATP addition measured after 60 mins by mobility shift assay relative to control.
Sequence of Epidermal growth factor receptor (Homo sapiens), P00533 [C797S] (P00533 whole entry C797S): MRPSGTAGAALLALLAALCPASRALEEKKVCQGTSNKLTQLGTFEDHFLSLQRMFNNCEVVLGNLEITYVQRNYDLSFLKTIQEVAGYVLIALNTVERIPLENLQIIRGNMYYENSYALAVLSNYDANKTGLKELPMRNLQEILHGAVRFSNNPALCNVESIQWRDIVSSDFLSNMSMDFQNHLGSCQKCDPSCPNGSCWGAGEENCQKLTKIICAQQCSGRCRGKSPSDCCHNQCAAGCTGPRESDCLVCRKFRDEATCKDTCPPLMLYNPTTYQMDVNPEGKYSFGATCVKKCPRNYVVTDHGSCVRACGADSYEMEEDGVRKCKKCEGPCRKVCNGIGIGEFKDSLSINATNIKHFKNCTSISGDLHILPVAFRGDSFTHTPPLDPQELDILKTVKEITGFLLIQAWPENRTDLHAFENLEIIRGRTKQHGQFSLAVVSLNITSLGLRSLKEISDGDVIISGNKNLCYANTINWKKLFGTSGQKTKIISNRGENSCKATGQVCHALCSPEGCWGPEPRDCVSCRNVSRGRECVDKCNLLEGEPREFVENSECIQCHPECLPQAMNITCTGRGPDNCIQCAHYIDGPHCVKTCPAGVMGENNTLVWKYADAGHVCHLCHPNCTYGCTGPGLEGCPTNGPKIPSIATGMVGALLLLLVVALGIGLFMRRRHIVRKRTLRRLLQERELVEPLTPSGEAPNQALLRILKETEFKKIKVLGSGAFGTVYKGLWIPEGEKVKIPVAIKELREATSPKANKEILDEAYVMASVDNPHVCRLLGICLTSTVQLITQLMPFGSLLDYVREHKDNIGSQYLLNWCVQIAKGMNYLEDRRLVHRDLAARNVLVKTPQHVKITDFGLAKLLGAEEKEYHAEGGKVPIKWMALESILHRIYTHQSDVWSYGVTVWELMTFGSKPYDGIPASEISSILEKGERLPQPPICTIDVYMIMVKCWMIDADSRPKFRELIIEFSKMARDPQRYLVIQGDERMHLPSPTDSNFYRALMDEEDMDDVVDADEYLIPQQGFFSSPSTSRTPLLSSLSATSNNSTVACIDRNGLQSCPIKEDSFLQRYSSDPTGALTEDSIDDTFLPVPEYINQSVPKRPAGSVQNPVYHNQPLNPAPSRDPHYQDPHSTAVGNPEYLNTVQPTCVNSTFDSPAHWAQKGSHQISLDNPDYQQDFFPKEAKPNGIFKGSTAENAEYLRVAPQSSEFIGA

For the compound `C=CC(=O)Nc1cccc(Oc2nc(Nc3ccc(N4CCN(C)CC4)c(OC)c3)nc3[nH]ccc23)c1`, the inhibition (commonly the share of the control response that was lost under treatment) was determined as 7.8% in assay [1]; 97% in assay [2]; 32% in assay [6]; 42% in assay [7]; 31% in assay [8]; 25% in assay [12]. The inhibition in [13] was found to be 13%. For the same compound, the IC50 (usually the concentration that gives 50% inhibition) in [3] came out at 12.5 µM; in assay [4], 9.89 µM; in [5], 22.4 µM; in assay [9] it was 33.6 µM; in assay [10] it was 20.6 µM; in [11], 0.26 µM.
For the compound `C=CC(=O)Nc1cccc(Oc2nc(Nc3ccc(N4CCN(C)CC4)cc3)nc3[nH]ccc23)c1`, the half-maximal inhibitory concentration (IC50) in assay [3] amounted to 28.1 µM; in assay [4], 23.8 µM; in assay [5] it was 22 µM; in assay [9], 36 µM; in assay [10] it was 9.92 µM; in [11], 0.24 µM.
In the case of `C=CC(=O)Nc1cccc(Oc2nc(Nc3ccc(N4CCN(C)CC4)c(Cl)c3)nc3[nH]ccc23)c1`, the inhibition came out at 9.2% in assay [1]; 98% in assay [2]; 86% in assay [6]; 92% in assay [7]; 41% in [8]; 44% in assay [12]. Moreover, in assay [13], the inhibition worked out at 4.8%. Besides, the IC50 in [3] turned out to be 8.73 µM; in [4], 3.8 µM; in assay [5] it was 1.67 µM; in [9] it was 4.86 µM; in assay [10], 1.68 µM; in assay [11] it was 0.12 µM.
With `C=CC(=O)Nc1cccc(Oc2nc(Nc3ccc(N4CCN(C)CC4)c(N)c3)nc3c2ccn3COC(=O)C(C)(C)C)c1`, the inhibition was found to be 3.6% in [1]; 7.3% in assay [2]; 4.5% in assay [6]; 2.4% in assay [7]; 9.7% in assay [8]; 11% in assay [12]. Further, the inhibition in assay [13] is 2.2%. For the same compound, the IC50 came out at 9.58 µM in assay [3]; 9.54 µM in [4]; 42 µM in assay [5]; 7.65 µM in [9]; 10.8 µM in [10]; 0.33 µM in assay [11].
With `C=CC(=O)Nc1cccc(Oc2nc(Nc3ccc(N4CCN(C)CC4)c([N+](=O)[O-])c3)nc3c2ccn3COC(=O)C(C)(C)C)c1`, the inhibition stood at 8.4% in [1]; 7.9% in assay [2]; 4.7% in assay [6]; 3.5% in assay [7]; 13% in assay [8]; 0.41% in [12]. Further, in assay [13], the inhibition was 6.3%. Moreover, the IC50 in assay [3] worked out at 3.61 µM; in assay [4] it was 5.73 µM; in assay [5] it was 4.12 µM; in assay [9], 4.68 µM; in [10], 3.1 µM; in assay [11], 0.44 µM.
